Consider one molecule from US7399770B2, “Thieno-imino acid derivatives for use as matrix metalloproteinase inhibitors” (SANOFI-AVENTIS Deutschland GmbH, priority 2004, dated 2008).

Holding throughout (type): biochemical
What all share (settings): fluorogenic substrate, pH 7.5

Assay [1] has as its target T1, catalytic domain of human collagenase-3 (MMP-13) (Homo sapiens, UniProt P45452).
T1 construct: Determining the enzymatic activity of the catalytic domain of human collagenase-3 (MMP-13); purchased INVITEK, Berlin 30 100 803
Put plainly: enzymatic activity of the catalytic domain of human collagenase-3 (MMP-13). Here is the method: Determining the enzymatic activity of the catalytic domain of human collagenase-3 (MMP-13).
(§1) Activation of the Proenzyme:
(§2) 2 parts by volume of proenzyme were incubated, at 37° C. for 1.5 hours, with 1 part by volume of APMA solution. The APMA solution was prepared from a 10 mmol/l solution of p-aminophenylmercuric acetate in 0.1 mmol/l NaOH by diluting with 3 parts by volume of Tris/HCl buffer pH 7.5 (see below). The pH was adjusted to between 7.0 and 7.5 by adding 1 mmol/l HCl. After the enzyme had been activated, it was diluted with the Tris/HCl buffer down to a concentration of 1.67 μg/ml.
(§3) In order to measure the enzyme activity, 10 μl of enzyme solution were incubated, for 15 minutes, with 10 μl of a 3% (v/v) buffered solution of dimethyl sulfoxide (reaction 1). […]
Both in the case of reaction 1 and in the case of reaction 2, the enzyme reaction was monitored by fluorescence spectroscopy (328 nm (extinction)/393 nm (emission)) after 10 μl of a 3% (v/v) aqueous solution of dimethyl sulfoxide containing 0.075 mmol of the substrate/l had been added. […]
(§4) The inhibitor effect was calculated as a percentage inhibition in accordance with the following formula: % inhibition=100−[(increase in extinction/minute in reaction 2)/(increase in extinction/minute in reaction 1)×100]. […]

Assay [2] addresses T2, catalytic domain of human stromelysin (MMP-3) (Homo sapiens, UniProt P08254).
T2 construct: catalytic domains of human stromelysin (MMP-3) and neutrophil collagenase (MMP-8); made in house
Kind of assay: enzymatic activity of the catalytic domain of human stromelysin (MMP-3). Here is the method:
(§5) Preparation, and determination of the enzymatic activity, of the catalytic domains of human stromelysin (MMP-3) and neutrophil collagenase (MMP-8).
(§6) The two enzymes, i.e. stromelysin (MMP-3) and neutrophil collagenase (MMP-8), were prepared in accordance with Ye et al. (Biochemistry; 31 (1992) pages 11231-11235). In order to measure the enzyme activity, or the enzyme inhibitor effect, 10 μl of enzyme solution were incubated, for 15 minutes, with 10 μl of a 3% (v/v) buffered solution of dimethyl sulfoxide which contained the enzyme inhibitor, where appropriate. After 10 μl of a 3% (v/v) aqueous solution of dimethyl sulfoxide containing 1 mmol of the substrate/l had been added, the enzyme reaction was monitored by fluorescence spectroscopy (328 nm (ex)/393 nm (em)).
(§7) The enzyme activity is expressed as increase in extinction/minute. The IC50 values listed in table 2 were determined as being those inhibitor concentrations which in each case led to a 50% inhibition of the enzyme.
(§8) The buffer solution contained 0.05% Brij (Sigma, Deisenhofen, Germany) and also 0.1 mol of Tris/HCl/l, 0.1 mol of NaCl/l, 0.01 mol of CaCl2/l and 0.1 mol of piperazine-N,N′-bis[2-ethanesulfonic acid]/l (pH=7.5). […]

Assay [3] addresses T3, catalytic domain of human gelatinase-A (MMP-2) (Homo sapiens, UniProt P08253).
T3 construct: Determining the enzymatic activity of the catalytic domain of human gelatinase-A (MMP-2); purchased INVITEK, Berlin 30 100 602
Put plainly: enzymatic activity of the catalytic domain of human gelatinase-A (MMP-2). Here is the method: Determining the enzymatic activity of the catalytic domain of human gelatinase-A (MMP-2).
as §1
as §2, with “0.5 hour,” for “1.5 hours,”, “mmol/l” for “mmol/l solution of”, “acetate solution” for “acetate”, “mmol HCl/l.” for “mmol/l HCl.”, “0.83” for “1.67”, “μg/ml. In order to measure the enzyme activity, 10 μl of enzyme solution were incubated, for 15 minutes, with 10 μl of a 3% (v/v) buffered solution of dimethyl sulfoxide (reaction 1). […]” for “μg/ml.”
Both in the case of reaction 1 and in the case of reaction 2, the enzyme reaction was monitored by fluorescence spectroscopy (328 nm (extinction)/393 nm (emission)) after 10 μl of a 3% (v/v) aqueous solution of dimethyl sulfoxide containing 0.3 mmol of the substrate/l had been added.
(§9) The enzyme activity was expressed as increase in extinction/minute.
as §4

For assay [4], the target named is T4, catalytic domain of human gelatinase-B (MMP-9) (Homo sapiens, UniProt P14780).
T4 construct: Determining the enzymatic activity of the catalytic domain of human gelatinase-B (MMP-9); purchased Roche, Mannheim 1 758 896
Put plainly: enzymatic activity of the catalytic domain of human gelatinase-B (MMP-9). As to the method:
Determining the enzymatic activity of the catalytic domain of human gelatinase-B (MMP-9).
as §1
2parts by volume of proenzyme were incubated, at 37° C. for 4 hours, with 1 part by volume of APMA solution. The APMA solution was prepared from a 10 mmol/l p-aminophenylmercuric acetate solution in 0.1 mmol/l NaOH by diluting with 3 parts by volume of Tris/HCl buffer, pH 7.5 (see below). The pH was adjusted to between 7.0 and 7.5 by adding 1 mmol/l HCl. After the enzyme had been activated, it was diluted with the Tris/HCl buffer down to a concentration of 4.2 mU/ml.
as §3
Both in the case of reaction 1 and in the case of reaction 2, the enzyme reaction was monitored by fluorescence spectroscopy (328 nm (extinction)/393 nm (emission)) after 10 μl of a 3% (v/v) aqueous solution of dimethyl sulfoxide containing 0.15 mmol of the substrate/l had been added.
as §9, §4

Assay [5] addresses T5, catalytic domain of human collagenase-1 (MMP-1) (Homo sapiens, UniProt P03956).
T5 construct: Determining the enzymatic activity of the catalytic domain of human collagenase-1 (MMP-1); purchased Biocol, Potsdam MMP1
T5 sequence (P03956 100-269 limits assumed): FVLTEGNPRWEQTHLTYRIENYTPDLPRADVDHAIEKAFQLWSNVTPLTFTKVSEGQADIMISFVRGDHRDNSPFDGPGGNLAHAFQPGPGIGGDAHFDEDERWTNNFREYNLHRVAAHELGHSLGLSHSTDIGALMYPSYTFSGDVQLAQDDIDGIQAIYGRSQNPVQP
Put plainly: enzymatic activity of the catalytic domain of human collagenase-1 (MMP-1). As to the method:
Determining the enzymatic activity of the catalytic domain of human collagenase-1 (MMP-1).
as §1
as §2, with “are” for “were”, “1 hour,” for “1.5 hours,”, “is” for “was”, “has” for “had”, “2.5” for “1.67”, “μg/ml. In order to measure the enzyme activity, 10 μl of enzyme solution are incubated, for 15 minutes, with 10 μl of a 3% (v/v) buffered solution of dimethyl sulfoxide (reaction 1). […]” for “μg/ml.”
Both in the case of reaction 1 and in the case of reaction 2, the enzyme reaction is monitored by fluorescence spectroscopy (328 nm (extinction)/393 nm (emission)) after 10 μl of a 3% (v/v) aqueous solution of dimethyl sulfoxide which contains 0.3 mmol of the substrate/l has been added. The enzyme activity is expressed as increase in extinction/minute. The inhibitor effect is calculated as percentage inhibition in accordance with the following formula: % inhibition=100−[(increase in extinction/minute in reaction 2)/(increase in extinction/minute in reaction 1)×100]. […]

The target in assay [6] is T6, catalytic domain of human neutrophil collagenase (MMP-8) (Homo sapiens, UniProt P22894).
T6 construct: catalytic domains of human stromelysin (MMP-3) and neutrophil collagenase (MMP-8); made in house
Put plainly: enzymatic activity of the catalytic domain of human neutrophil collagenase (MMP-8). As to the method: as §5, §6, §7, §8

T2 sequence (P08254 100-272 limits assumed): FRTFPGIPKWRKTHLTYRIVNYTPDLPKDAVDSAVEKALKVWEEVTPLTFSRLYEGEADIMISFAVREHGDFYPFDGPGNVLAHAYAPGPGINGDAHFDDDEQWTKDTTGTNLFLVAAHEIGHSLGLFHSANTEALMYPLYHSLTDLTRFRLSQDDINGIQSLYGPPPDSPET
T6 sequence (P22894 100-262 limits assumed): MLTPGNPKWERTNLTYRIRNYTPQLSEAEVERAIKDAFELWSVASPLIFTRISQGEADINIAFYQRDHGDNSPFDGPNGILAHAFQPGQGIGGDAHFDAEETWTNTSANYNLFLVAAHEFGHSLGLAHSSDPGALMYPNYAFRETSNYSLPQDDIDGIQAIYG
T3 sequence (P08253 110-465 limits assumed): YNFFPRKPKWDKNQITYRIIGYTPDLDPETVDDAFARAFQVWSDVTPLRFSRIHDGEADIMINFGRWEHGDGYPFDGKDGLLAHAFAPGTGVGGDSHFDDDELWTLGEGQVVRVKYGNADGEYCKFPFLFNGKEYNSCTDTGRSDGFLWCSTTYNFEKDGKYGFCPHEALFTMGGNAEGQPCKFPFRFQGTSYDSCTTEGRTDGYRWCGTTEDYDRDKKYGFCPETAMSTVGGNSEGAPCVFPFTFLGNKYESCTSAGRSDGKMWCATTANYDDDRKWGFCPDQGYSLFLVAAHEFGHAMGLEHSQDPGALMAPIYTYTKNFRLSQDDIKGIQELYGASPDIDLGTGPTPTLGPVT
T4 sequence (P14780 107-444 limits assumed): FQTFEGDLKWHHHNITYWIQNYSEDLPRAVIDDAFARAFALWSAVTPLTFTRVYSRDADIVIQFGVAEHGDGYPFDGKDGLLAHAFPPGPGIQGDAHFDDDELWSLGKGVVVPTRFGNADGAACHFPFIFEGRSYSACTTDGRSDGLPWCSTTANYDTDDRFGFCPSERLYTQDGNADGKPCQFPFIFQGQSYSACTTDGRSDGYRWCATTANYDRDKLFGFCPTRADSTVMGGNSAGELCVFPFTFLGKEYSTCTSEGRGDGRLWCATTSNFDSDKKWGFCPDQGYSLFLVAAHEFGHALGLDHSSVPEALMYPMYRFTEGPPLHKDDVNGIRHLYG

What is called IC50 is the midpoint of a concentration-inhibition curve. Low values mean higher potency, high ones lower potency. For the molecule `O=C(NO)C1c2c(sc3ccccc23)C(O)CN1S(=O)(=O)c1ccc(-c2ccc(Cl)cc2)cc1` (stereo not drawn) [Example 1, 2-(4′-Chlorobiphenyl-4-sulfonyl)-4-hydroxy-1,2,3,4-tetrahydrobenzo[4,5]thieno[3,2-c]pyridine-1-carboxylic acid hydroxyamide], the IC50 in assay [1] is 6.3 nM; in assay [2], 70 nM; in assay [3], 2.5 nM; in assay [4], 3.5 nM; in assay [5] it was 700 nM; in assay [6] it was 13 nM.
